Structures are written as SMILES.

For 16 molecules, DC50 results are on record in US20260317299A1, “PIKFYVE PROTEIN KINASE DEGRADATION AGENT AND USE THEREOF” (Shanghai Institute of Organic Chemistry, Chinese Academy of …, priority 2023, published 2026).

T1 sequence (Q9Y2I7 whole entry): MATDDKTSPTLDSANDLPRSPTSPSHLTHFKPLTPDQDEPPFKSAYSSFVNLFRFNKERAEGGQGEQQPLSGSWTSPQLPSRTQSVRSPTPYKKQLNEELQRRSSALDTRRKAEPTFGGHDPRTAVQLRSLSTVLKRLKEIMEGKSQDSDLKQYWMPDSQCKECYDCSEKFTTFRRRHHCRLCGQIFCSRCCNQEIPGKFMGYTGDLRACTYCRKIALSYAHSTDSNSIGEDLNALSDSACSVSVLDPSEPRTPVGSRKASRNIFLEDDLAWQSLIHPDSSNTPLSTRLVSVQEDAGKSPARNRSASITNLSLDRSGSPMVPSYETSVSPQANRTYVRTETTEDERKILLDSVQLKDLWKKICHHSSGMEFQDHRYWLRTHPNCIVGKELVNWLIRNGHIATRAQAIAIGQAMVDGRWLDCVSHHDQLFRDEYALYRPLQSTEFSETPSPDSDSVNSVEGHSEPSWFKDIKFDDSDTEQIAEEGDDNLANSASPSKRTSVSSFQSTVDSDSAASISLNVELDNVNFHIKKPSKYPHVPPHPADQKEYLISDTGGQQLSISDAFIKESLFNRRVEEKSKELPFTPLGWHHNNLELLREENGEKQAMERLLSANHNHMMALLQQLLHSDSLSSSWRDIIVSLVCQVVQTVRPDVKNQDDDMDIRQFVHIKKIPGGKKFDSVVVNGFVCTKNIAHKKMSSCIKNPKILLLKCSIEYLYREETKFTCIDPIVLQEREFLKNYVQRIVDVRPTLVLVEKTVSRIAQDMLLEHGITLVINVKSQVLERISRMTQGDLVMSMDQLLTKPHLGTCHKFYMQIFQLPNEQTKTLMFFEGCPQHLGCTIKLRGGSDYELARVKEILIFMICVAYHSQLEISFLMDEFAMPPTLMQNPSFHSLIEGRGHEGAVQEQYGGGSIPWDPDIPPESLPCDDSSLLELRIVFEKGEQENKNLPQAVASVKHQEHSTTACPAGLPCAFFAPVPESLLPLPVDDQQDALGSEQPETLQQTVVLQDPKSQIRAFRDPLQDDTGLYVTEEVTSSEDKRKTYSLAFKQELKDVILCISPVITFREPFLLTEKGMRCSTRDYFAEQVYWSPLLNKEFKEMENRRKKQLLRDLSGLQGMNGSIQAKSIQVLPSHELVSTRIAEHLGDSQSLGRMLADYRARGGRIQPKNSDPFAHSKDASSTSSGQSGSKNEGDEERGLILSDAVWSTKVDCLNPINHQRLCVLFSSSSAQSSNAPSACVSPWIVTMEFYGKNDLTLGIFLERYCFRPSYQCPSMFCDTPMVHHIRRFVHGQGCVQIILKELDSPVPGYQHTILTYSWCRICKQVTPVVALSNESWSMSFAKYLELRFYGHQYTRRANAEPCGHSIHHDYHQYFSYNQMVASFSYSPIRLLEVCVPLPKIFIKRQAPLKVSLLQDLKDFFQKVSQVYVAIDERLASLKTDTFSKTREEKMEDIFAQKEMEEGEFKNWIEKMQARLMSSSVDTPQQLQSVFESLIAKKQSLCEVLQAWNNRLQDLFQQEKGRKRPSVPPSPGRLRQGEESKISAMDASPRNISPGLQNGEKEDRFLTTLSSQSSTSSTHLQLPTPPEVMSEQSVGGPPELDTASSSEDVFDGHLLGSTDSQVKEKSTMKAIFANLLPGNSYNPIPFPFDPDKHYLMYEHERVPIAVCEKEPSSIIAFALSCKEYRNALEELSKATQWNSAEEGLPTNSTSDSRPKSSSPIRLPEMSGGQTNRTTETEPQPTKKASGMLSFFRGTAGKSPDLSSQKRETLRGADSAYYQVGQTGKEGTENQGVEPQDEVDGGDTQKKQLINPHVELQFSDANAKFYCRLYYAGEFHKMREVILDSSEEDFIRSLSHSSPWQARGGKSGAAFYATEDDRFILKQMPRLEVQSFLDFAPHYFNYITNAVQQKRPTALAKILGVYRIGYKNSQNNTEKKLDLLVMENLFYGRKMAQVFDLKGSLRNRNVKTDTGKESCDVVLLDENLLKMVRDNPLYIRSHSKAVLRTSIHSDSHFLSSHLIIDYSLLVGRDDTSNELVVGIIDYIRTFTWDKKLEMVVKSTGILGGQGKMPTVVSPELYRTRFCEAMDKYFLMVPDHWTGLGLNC

This test concerns the target T1, PIKfyve (Homo sapiens, UniProt Q9Y2I7).
T1 construct: endogenous in cells; host or cells: VCaP
In words: Degradation of PIKfyve proteins in VCaP tumor cells (24 h, Western blot). Type of test: cell-based. Particulars: 37° C., compared with DMSO control, WB, read-out: DC50 (concentration that achieves 50% degradation activity). Put shortly: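 VCaP cells (5×10^6 cells/ml) treated with a range of compound concentrations at 37° C for 24 h, then lysed in SDS buffer. PIKfyve level measured by Western blot with GAPDH as loading control and ECL detection. DC50 is the concentration giving 50% degradation relative to DMSO control.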
(A western blot detects proteins with antibodies after separation by electrophoresis.)
For `Cc1cccc(/C=N/Nc2cc(N3CCOCC3)nc(OCCNC(=O)CCCCCCC(=O)N[C@H](C(=O)N3C[C@H](O)C[C@H]3C(=O)NCc3ccc(-c4scnc4C)cc3)C(C)(C)C)n2)c1` [Example 63, N^1—((S)-1-((2S,4R)-4-hydroxy-2-((4-(4-methylthiazol-5-yl)benzyl)carbamoyl)pyrrolidine-1-yl)-3,3-dimethyl-1-oxobutan-2-yl)-N-(2-((4-(2-((E)-3-methylbenzylidene) hydrazino)-6-morpholinopyrimidin-2-yl)oxy)ethyl)octanediamide], the DC50 lay in the range of 100 to 10000 nM.

Take `Cc1cccc(/C=N/Nc2cc(N3CCOCC3)nc(OCCc3ccc(NC(=O)CCCCCCCCCCC(=O)Nc4cccc5c4CN(C4CCC(=O)NC4=O)C5=O)cc3)n2)c1` (stereo not shown) [Example 23, (E)-N^1-(2-(2,6-dioxopiperidin-3-yl)-1-oxoisoindolin-4-yl)-N^12-(4-(2-((4-(2-(3-methylbenzylidene)hydrazino)-6-morpholinopyrimidin-2-yl)oxy)ethyl)phenyl)dodecanediamide]: the DC50 was 100 to 10000 nM.

As for `Cc1cccc(-c2ccn(-c3cc(N4CCOCC4)nc(OCCc4ccc(N5CCN(C(=O)CC[C@H](NC(=O)[C@@H]6C[C@@H](O)CN6C(=O)[C@@H](NC(=O)C6(F)CC6)C(C)(C)C)c6ccc(-c7scnc7C)cc6)CC5)cc4)n3)n2)c1` [Example 76, (2S,4R)-1-((S)-2-(1-fluorocyclopropane-1-carboxamido)-3,3-dimethylbutanoyl)-4-hydroxy-N—((S)-1-(4-(4-methylthiazol-5-yl)phenyl)-4-(4-(4-(2-((4-morpholino-6-(3-(m-tolyl)-1H-pyrazol-1-yl)pyrimidin-2-yl)oxy)ethyl)phenyl)piperazin-1-yl)-4-oxobutyl)pyrrolidine-2-carboxamide], the DC50 lay within 1 to 100 nM.

For `Cc1cccc(/C=N/Nc2cc(N3CCOCC3)nc(OCCc3ccc(NC(=O)COc4cccc5c4C(=O)N(C4CCC(=O)NC4=O)C5=O)cc3)n2)c1` (stereo not shown) [Example 1, (E)-2-((2-(2,6-dioxopiperidin-3-yl)-1,3-dioxoisoindolin-4-yl)oxy)-N-(4-(2-((4-(2-(3-methylbenzylidene)hydrazino)-6-morpholinopyrimidin-2-yl)oxy)ethyl)phenyl)acetamide], the DC50 was 100 to 10000 nM.

In the case of `Cc1cccc(/C=N/Nc2cc(N3CCOCC3)nc(OCCc3ccc(NC(=O)CCCCCCCCCCC(=O)Nc4cccc5c4C(=O)N(C4CCC(=O)NC4=O)C5)cc3)n2)c1` (stereo not shown) [Example 36, (E)-N^1-(2-(2,6-dioxopiperidin-3-yl)-3-oxoisoindolin-4-yl)-N^12-(4-(2-((4-(2-(3-methylbenzylidene)hydrazino)-6-morpholinopyrimidin-2-yl)oxy)ethyl)phenyl)dodecanediamide], the DC50 is 100 to 10000 nM.

Turning to `Cc1cccc(/C=N/Nc2cc(N3CCOCC3)nc(OCCc3ccc(NC(=O)CSC(C)(C)[C@H](NC(=O)C4(F)CC4)C(=O)N4C[C@H](O)C[C@H]4C(=O)NCc4ccc(-c5scnc5C)cc4)cc3)n2)c1` [Example 57, (2S,4R)-1-((R)-2-(1-fluorocyclopropane-1-carboxamido)-3-methyl-3-((2-((4-(2-((4-(2-((E)-3-methylbenzylidene)hydrazino)-6-morpholinopyrimidin-2-yl)oxy)ethyl)phenyl)amino)-2-oxoethyl)thio)butanoyl)-4-hydroxy-N-(4-(4-methylthiazol-5-yl)benzyl)pyrrolidine-2-carboxamide], the DC50 lay within 1 to 100 nM.

`Cc1cccc(/C=N/Nc2cc(N3CCOCC3)nc(OCCc3ccc(NC(=O)CCCNC(=O)CSC(C)(C)[C@H](NC(=O)C4(F)CC4)C(=O)N4C[C@H](O)C[C@H]4C(=O)NCc4ccc(-c5scnc5C)cc4)cc3)n2)c1` [Example 59, (2S,4R)-1-((R)-2-(1-fluorocyclopropane-1-carboxamido)-3-methyl-3-((2-((4-((4-(2-((4-(2-((E)-3-methylbenzylidene)hydrazino)-6-morpholinopyrimidin-2-yl)oxy)ethyl)phenyl)amino)-4-oxobutyl)amino)-2-oxoethyl)thio)butanoyl)-4-hydroxy-N-(4-(4-methylthiazol-5-yl)benzyl)pyrrolidine-2-carboxamide]: the DC50 was in the range of 100 to 10000 nM.

As to `Cc1cccc(/C=N/Nc2cc(N3CCOCC3)nc(OCCNC(=O)CCCCCCCCC(=O)N[C@H](C(=O)N3C[C@H](O)C[C@H]3C(=O)NCc3ccc(-c4scnc4C)cc3)C(C)(C)C)n2)c1` [Example 64, N^1—((S)-1-((2S,4R)-4-hydroxy-2-((4-(4-methylthiazol-5-yl)benzyl)carbamoyl)pyrrolidine-1-yl)-3,3-dimethyl-1-oxobutan-2-yl)-N^10-(2-((4-(2-((E)-3-methylbenzylidene) hydrazino)-6-morpholinopyrimidin-2-yl)oxy)ethyl)decanediamide], the DC50 is 100 to 10000 nM.

For the molecule `Cc1cccc(/C=N/Nc2cc(N3CCOCC3)nc(OCCc3ccc(NC(=O)CCCCCOc4ccc5c(c4)C(=O)N(C4CCC(=O)NC4=O)C5=O)cc3)n2)c1` (stereo not shown) [Example 8, (E)-6-((2-(2,6-dioxopiperidin-3-yl)-1,3-dioxoisoindolin-5-yl)oxy)-N-(4-(2-((4-(2-(3-methylbenzylidene)hydrazino)-6-morpholinopyrimidin-2-yl)oxy)ethyl)phenyl)hexanamide], the DC50 lay in the range of 100 to 10000 nM.

On to `Cc1cccc(/C=N/Nc2cc(N3CCOCC3)nc(OCCc3ccc(NC(=O)CCC(=O)Nc4cccc5c4C(=O)N(C4CCC(=O)NC4=O)C5)cc3)n2)c1` (stereo not shown) [Example 32, (E)-N^1-(2-(2,6-dioxopiperidin-3-yl)-3-oxoisoindolin-4-yl)-N^4-(4-(2-((4-(2-(3-methylbenzylidene)hydrazino)-6-morpholinopyrimidin-2-yl)oxy)ethyl)phenyl)succinimide], for which the DC50 is 1 to 100 nM.

For `Cc1cccc(-c2ccn(-c3cc(N4CCOCC4)nc(OCCc4ccc(C#CC5CCN(C(=O)CC[C@H](NC(=O)[C@@H]6C[C@@H](O)CN6C(=O)[C@@H](NC(=O)C6(F)CC6)C(C)(C)C)c6ccc(-c7scnc7C)cc6)CC5)cc4)n3)n2)c1` [Example 71, (2S,4R)-1-((S)-2-(1-fluorocyclopropane-1-carboxamido)-3,3-dimethylbutanoyl)-4-hydroxy-N—((S)-1-(4-(4-methylthiazol-5-yl)phenyl)-4-(4-((4-(2-((4-morpholino-6-(3-(m-tolyl)-1H-pyrazol-1-yl)pyrimidin-2-yl)oxy)ethyl)phenyl)ethynyl)piperidin-1-yl)-4-oxobutyl) pyrrolidine-2-carboxamide], the DC50 lay in the range of 1 to 100 nM.

With `Cc1cccc(-c2ccn(-c3cc(N4CCOCC4)nc(OC4CCN(c5ccc(NC(=O)NC6CN(C(=O)CC[C@H](NC(=O)[C@@H]7C[C@@H](O)CN7C(=O)[C@@H](NC(=O)C7(F)CC7)C(C)(C)C)c7ccc(-c8scnc8C)cc7)C6)cc5)CC4)n3)n2)c1` [Example 81, (2S,4R)-1-((S)-2-(1-fluorocyclopropane-1-carboxamido)-3,3-dimethylbutanoyl)-4-hydroxy-N—((S)-1-(4-(4-methylthiazol-5-yl)phenyl)-4-(3-(3-(4-(4-((4-morpholino-6-(3-(m-tolyl)-1H-pyrazol-1-yl)pyrimidin-2-yl)oxy)piperidin-1-yl)phenyl)ureido)azetidin-1-yl)-4-oxobutyl)pyrrolidine-2-carboxamide], the DC50 was in the range of 1 to 100 nM.

Regarding `Cc1cccc(-c2ccn(-c3cc(N4CCOCC4)nc(OC4CCN(c5ccc(NC(=O)CCCC[C@H](NC(=O)[C@@H]6C[C@@H](O)CN6C(=O)[C@@H](NC(=O)C6(F)CC6)C(C)(C)C)c6ccc(-c7scnc7C)cc6)cc5)CC4)n3)n2)c1` [Example 69, (2S,4R)-1-((S)-2-(1-fluorocyclopropane-1-carboxamido)-3,3-dimethylbutanoyl)-4-hydroxy-N—((S)-1-(4-(4-methylthiazol-5-yl)phenyl)-6-((4-(4-((4-morpholino-6-(3-(m-tolyl)-1H-pyrazol-1-yl)pyrimidin-2-yl)oxy)piperidin-1-yl)phenyl)amino)-6-oxohexyl)pyrrolidine-2-carboxamide], the DC50 fell in the range of 1 to 100 nM.

Take `Cc1cccc(-c2ccn(-c3cc(N4CCOCC4)nc(OCCc4ccc(NC(=O)NC5CCN(C(=O)CC[C@H](NC(=O)[C@@H]6C[C@@H](O)CN6C(=O)[C@@H](NC(=O)C6(F)CC6)C(C)(C)C)c6ccc(-c7scnc7C)cc6)CC5)cc4)n3)n2)c1` [Example 79, (2S,4R)-1-((S)-2-(1-fluorocyclopropane-1-carboxamido)-3,3-dimethylbutanoyl)-4-hydroxy-N—((S)-1-(4-(4-methylthiazol-5-yl)phenyl)-4-(4-(3-(4-(2-((4-morpholino-6-(3-(m-tolyl)-1H-pyrazol-1-yl)pyrimidin-2-yl)oxy)ethyl)phenyl)ureido)piperidin-1-yl)-4-oxobutyl) pyrrolidine-2-carboxamide]: the DC50 is 1 to 100 nM.

Take `Cc1cccc(-c2ccn(-c3cc(N4CCOCC4)nc(OC4CCN(c5ccc(N6CCN(C(=O)CC[C@H](NC(=O)[C@@H]7C[C@@H](O)CN7C(=O)[C@@H](NC(=O)C7(F)CC7)C(C)(C)C)c7ccc(-c8scnc8C)cc7)CC6)cc5)CC4)n3)n2)c1` [Example 85, (2S,4R)-1-((S)-2-(1-fluorocyclopropane-1-carboxamido)-3,3-dimethylbutanoyl)-4-hydroxy-N—((S)-1-(4-(4-methylthiazol-5-yl)phenyl)-4-(4-(4-(4-((4-morpholino-6-(3-(m-tolyl)-1H-pyrazol-1-yl)pyrimidin-2-yl)oxy)piperidin-1-yl)phenyl)piperazin-1-yl)-4-oxobutyl) pyrrolidine-2-carboxamide]: the DC50 is 1 to 100 nM.

In the case of `Cc1cccc(/C=N/Nc2cc(N3CCOCC3)nc(OCCNC(=O)CCC(=O)N[C@H](C(=O)N3C[C@H](O)C[C@H]3C(=O)NCc3ccc(-c4scnc4C)cc3)C(C)(C)C)n2)c1` [Example 61, N^1—((S)-1-((2S,4R)-4-hydroxy-2-((4-(4-methylthiazol-5-yl)benzyl)carbamoyl)pyrrolidine-1-yl)-3,3-dimethyl-1-oxobutan-2-yl)-N^4-(2-((4-(2-((E)-3-methylbenzylidene) hydrazino)-6-morpholinopyrimidin-2-yl)oxy)ethyl)succinimide], the DC50 lay in the range of 100 to 10000 nM.
